Reference: US20140350050A1, “PYRIDINE COMPOUNDS AS INHIBITORS OF KINASE” (TELIGENE LTD., priority 2011, published 2014)
Read-outs that look alike come from different tables or passages of the source.

Assays:
ALK kinase = ALK kinase (Homo sapiens, UniProt Q9UM73); test: ALK kinase assay; format: biochemical
Description: An in vitro assay which determines the ability of a test compound to inhibit ALK kinase. a) kinase-tagged T7 phage strains were prepared in an E. coli host derived from the BL21 strain. E. coli were grown to log-phase and infected with T7 phage and incubated with shaking at 32° C. until lysis. The lysates were centrifuged and filtered to remove cell debris. The remaining kinases were produced in HEK-293 cells and subsequently tagged with DNA for qPCR detection. […] The liganded beads were blocked with excess biotin and washed with blocking buffer (SeaBlock (Pierce), 1% BSA, 0.05% Tween 20, 1 mM DTT) to remove unbound ligand and to reduce non-specific binding. […] All reactions were performed in polystyrene 96-well plates in a final volume of 0.135 ml. […] The kinase concentration in the eluates was measured by qPCR. […]
b) An alternative method to conduct the kinase assay with the following condition and procedure: Reagent: Base Reaction buffer; 20 mM Hepes (pH 7.5), 10 mM MgCl2, 1 mM EGTA, 0.02% Brij35, 0.02 mg/ml BSA, 0.1 mM Na3VO4, 2 mM DTT, 1% DMSO.
1. Preparing indicated substrate in freshly prepared Base Reaction Buffer
2. Delivering any required cofactors to the substrate solution above
3. Delivering indicated kinase into the substrate solution and gently mix
4. Delivering compounds in DMSO into the kinase reaction mixture
5. Delivering ^33P-ATP (specific activity 0.01 μCi/μl final) into the reaction mixture to initiate the reaction.
6. Incubating kinase reaction for 120 min. at room temperature
7. Reactions are spotted onto P81 ion exchange paper (Whatman #3698-915)
8. Washing filters extensively in 0.75% Phosphoric acid. […]
c) An alternative method to conduct the kinase assay with the following condition and procedure: The assay was performed using Kinase-Glo Plus luminescence kinase assay kit (Promega). It measures kinase activity by quantitating the amount of ATP remaining in solution following a kinase reaction. The luminescent signal from the assay is correlated with the amount of ATP present and is inversely correlated with the amount of kinase activity.
The compound were diluted in 10% DMSO and 5 μl of the dilution was added to a 50 μl reaction so that the final concentration of DMSO is 1% in all of reactions. All of the enzymatic reactions were conducted at 30° C. for 40 minutes. The 50 μl reaction mixture contains 40 mM Tris, pH 7.4, 10 mM MgCl2, 0.1 mg/ml BSA, 1 mM DTT, 0.2 mg/ml substrate peptide, 10 μM ATP and ALK (Table 2.3.1). After the enzymatic reaction, 50 μl of Kinase-Glo Plus Luminescence kinase assay solution (Promega) was added to each reaction and incubate the plate for 5 minutes at room temperature. Luminescence signal was measured using a BioTek Synergy 2 microplate reader. ALK activity assays were performed in duplicate at each concentration. The luminescence data were analyzed using the computer software, Graphpad Prism. The difference between luminescence intensities in the absence of ALK (Lut) and in the presence of ALK (Luc) was defined as 100% activity (Lut−Luc). Using luminescence signal (Lu) in the presence of the compound, % activity was calculated as % activity={(Lut−Lu)/(Lut−Luc)}×100%, where Lu=the luminescence intensity in the presence of the compound (all percent activities below zero were shown zero in the table). The values of % activity versus a series of compound concentrations were then plotted using non-linear regression analysis of Sigmoidal dose-response curve generated with the equation Y=B+(T−B)/1+10^((Log EC50−X)×Hill Slope), where Y=percent activity, B=minimum percent activity, T=maximum percent activity, X=logarithm of compound and Hill Slope=slope factor or Hill coefficient. The IC50 value was determined by the concentration causing a half-maximal percent activity.

[1] = PK (pharmacokinetic) study in rat, cassette dosing; format: in vivo; conditions: male, Wistar, plasma
Description: A representative protocol for the PK (pharmacokinetic) is as followed: Animals used were Wistar rat, male and weight about 300-359 grams. Compound 21 and 22 were given either IV or oral to the same animals by cassette dosing. The dose for each compound is 1 mg/kg (volume 5 ml/kg) IV and 2 mg/kg (volume 10 ml/kg) oral. The formulation for IV was in PBS, the pH is adjusted by dilute HCl until compounds were totally dissolved. 0.5% Na-CMC suspension was used for the oral formulation. Sample collection: for IV route, plasma sample were collected at the time point 0.083, 0.25, 0.5, 1, 1.5, 2, 4, 6, 8, 12, 24 h. For oral route, plasma sample were collected at the time point 0.167, 0.33, 0.5, 1, 2, 4, 6, 8, 12, 24 h. Analysis: LC-MS/MS is used to calculate PK parameters: t1/2, tmax, Cmax, Vss and AUC etc.

ALK kinase, sequence (Q9UM73 19-1620): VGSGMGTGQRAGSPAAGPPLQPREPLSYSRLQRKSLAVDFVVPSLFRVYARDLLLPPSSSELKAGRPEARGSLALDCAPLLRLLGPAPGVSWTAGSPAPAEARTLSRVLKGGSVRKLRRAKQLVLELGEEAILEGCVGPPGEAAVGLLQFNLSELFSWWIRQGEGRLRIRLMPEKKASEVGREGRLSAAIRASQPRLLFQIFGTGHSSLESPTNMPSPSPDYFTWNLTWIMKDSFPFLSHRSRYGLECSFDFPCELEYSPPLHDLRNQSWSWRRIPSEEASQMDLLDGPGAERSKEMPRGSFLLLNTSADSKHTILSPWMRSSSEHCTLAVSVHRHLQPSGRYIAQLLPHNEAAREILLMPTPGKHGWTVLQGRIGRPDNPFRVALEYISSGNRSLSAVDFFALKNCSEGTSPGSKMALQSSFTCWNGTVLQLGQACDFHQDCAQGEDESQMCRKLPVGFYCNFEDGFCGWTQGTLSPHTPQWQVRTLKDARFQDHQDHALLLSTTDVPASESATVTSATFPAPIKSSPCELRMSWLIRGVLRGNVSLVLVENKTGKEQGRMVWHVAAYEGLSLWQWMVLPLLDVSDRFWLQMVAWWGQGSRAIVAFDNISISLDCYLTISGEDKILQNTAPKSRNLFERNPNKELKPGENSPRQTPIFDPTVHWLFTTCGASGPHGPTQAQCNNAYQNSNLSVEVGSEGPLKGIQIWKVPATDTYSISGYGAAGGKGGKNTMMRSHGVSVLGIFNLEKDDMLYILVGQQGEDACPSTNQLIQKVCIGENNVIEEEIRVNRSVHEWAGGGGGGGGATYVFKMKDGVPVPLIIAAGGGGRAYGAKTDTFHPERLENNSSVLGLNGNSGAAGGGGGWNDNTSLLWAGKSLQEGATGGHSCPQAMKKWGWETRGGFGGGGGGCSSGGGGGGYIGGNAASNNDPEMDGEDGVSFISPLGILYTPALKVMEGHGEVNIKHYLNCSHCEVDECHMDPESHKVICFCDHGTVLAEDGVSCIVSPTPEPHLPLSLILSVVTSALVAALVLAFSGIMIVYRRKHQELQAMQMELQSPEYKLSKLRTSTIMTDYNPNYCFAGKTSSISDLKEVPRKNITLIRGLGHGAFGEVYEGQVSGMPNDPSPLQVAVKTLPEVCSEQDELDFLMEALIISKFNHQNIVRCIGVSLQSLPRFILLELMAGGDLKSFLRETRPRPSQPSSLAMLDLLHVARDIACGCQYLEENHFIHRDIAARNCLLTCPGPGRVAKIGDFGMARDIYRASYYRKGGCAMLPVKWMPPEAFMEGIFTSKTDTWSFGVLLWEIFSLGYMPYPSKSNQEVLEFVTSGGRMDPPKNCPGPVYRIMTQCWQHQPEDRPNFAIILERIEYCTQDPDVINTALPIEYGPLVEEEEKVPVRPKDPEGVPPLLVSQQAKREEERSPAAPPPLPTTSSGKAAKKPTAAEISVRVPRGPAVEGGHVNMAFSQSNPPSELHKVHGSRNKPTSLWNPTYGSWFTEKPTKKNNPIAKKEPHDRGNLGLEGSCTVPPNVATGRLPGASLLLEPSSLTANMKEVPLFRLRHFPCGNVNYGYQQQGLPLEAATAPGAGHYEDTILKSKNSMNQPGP

## [2H]C([2H])([2H])C([2H])([2H])N1CCC(n2cc(-c3cnc(N)c(O[C@H](C)c4c(Cl)ccc(F)c4Cl)c3)cn2)CC1 [Compound 22, (R)-3-(1-(2,6-dichloro-3-fluorophenyl)ethoxy)-5-(1-(1-d5-ethylpiperidin-4-yl)-1H-pyrazol-4-yl)pyridin-2-amine]
ALK kinase; ALK kinase assay, read-out: ALK (IC50 grading)
  IC50: ≤ 100 nM
ALK kinase; read-out: IC50 in the ALK kinase assay
  IC50: 1.35 nM
[1]; IV cassette 1 mg/kg
  AUC(0-inf): 337 ng·h/mL
  AUC(0-t): 336 ng·h/mL
  Cmax: 259 ng/mL
  MRT: 3.11 h
  Tmax: 0.083 h
  clearance: 49.5 mL/min/kg
  half-life: 3.04 h
[1]; oral cassette 2 mg/kg
  AUC(0-inf): 146 ng·h/mL
  AUC(0-t): 140 ng·h/mL
  Cmax: 21 ng/mL
  MRT: 5.28 h
  Tmax: 4 h
  half-life: 3.1 h
[1]; oral cassette 2 mg/kg vs IV 1 mg/kg, read-out: F (bioavailability)
  bioavailability: 20.8%
